The values that follow come from patent publication US11180486B2, “Indolylkojyl methane analogues, process of preparation thereof and use as inhibitor of cancer cells invasion and metastasis” (Council of Scientific & Industrial Research, priority 2017, dated 2021).

The subject of assay [1] is MCF7 cells. The assay can be described thus: Cell viability (MTT) assay. The class given is cell-based. Conditions: Homo sapiens. The procedure:
(§1) Cell Culture and Reagents. The cell lines used in this study were procured from American Type Culture Collection (ATCC), Manassas, USA. MCF7, T47D and fR2 cells were cultured in RPMI-1640 medium, whereas the MDA-MB-231 cells were grown in Leibovitz's (L-15) medium supplemented with 10% fetal bovine serum (Gibco) and 1% penicillin/streptomycin (Sigma) in a humidified CO2 incubator (New Brunswick Galaxy 170 R) with 5% CO2. Reagents such as phenylmethylsulfonyl fluoride (PMSF), dithiothreitol (DTT), DMSO, crystal violet, and Bradford's reagent were purchased from Sigma-Aldrich. Protease inhibitor cocktail was procured from Roche. The antibodies for human GRP78, Par-4, MMP-2, MMP-9, NF-kB, E-cadherin and TIMP-1 were procured from Santa-Cruz Biotechnology. The β-actin antibody and the secondary antibodies such as anti-rabbit IgG and anti-mouse IgG were procured from Sigma-Aldrich.
(§2) Cell Viability Assay. The cell viability was determined by standard MTT assay method. Briefly, MDA-MB-231, MCF7, T47D and fR2 cells were seeded in 96 well tissue culture plates (Nunc) at a density of 3×10^3 cells per well and treated with varying concentrations of the test compounds in triplicates. DMSO was taken as a vehicle and the final concentration of the DMSO was maintained at 0.2% in the culture medium. Doxorubicin was employed as a positive control. After 44 h of incubation, MTT dye solution was added into the medium and cells were incubated for another 4 h at 37° C. in 5% CO2. The amount of coloured formazan derivatives formed was measured by taking optical density (OD) using a microplate reader (TECAN, Infinite M200 Pro) at 570 nm and the percentage cell viability was calculated. The IC50 values were calculated using GraphPad Prism software (Version 5.0). Table 2. Cytotoxicity (IC50) of all synthesized compounds of invention against panel of human breast cancer cell lines (MDA-MB-231, MCF7, T47D) and normal breast epithelial (fR2) cells.

Assay [2] concerns MDA-MB-231 cells. The assay can be described thus: Cell viability (MTT) assay. Conditions: Homo sapiens. The class given is cell-based. The procedure: as §1, §2
The subject of assay [3] is T47D cells. The assay can be described thus: Cell viability (MTT) assay. The assay is classed as cell-based. Conditions: Homo sapiens, 44 h + 4 h, mean ± SD of three experiments. The procedure: as §1, §2
The test system of assay [4] is MCF7 cells. The assay can be described thus: Migration (wound closure) assay. The assay is classed as cell-based, human. Conditions: after 48 h of incubation. The procedure:
(§3) Migration Assay. The experiment was performed according to the pre-standardized procedure (Rah et al., 2012, PloS one, 7(9). p.e44039). MDA-MB-231 and MCF7 cells were plated in 6-well plates at a concentration of (1×10^6 cells/well) and allowed to form a confluent monolayer for 24 h. On the next day, the monolayer was scratched with a sterile pipette tip (20-200 μl) and washed with serum free medium to remove the detached cells. […] Wounded areas were progressively photographed under an inverted microscope with Nikon D3100 camera at 20× magnification. […]

Assay [5] has as its system MDA-MB-231 cells. The assay can be described thus: Migration (wound closure) assay. The class given is cell-based, human. Conditions: after 48 h of incubation. The procedure:
as §3

Assay [6] relates to MCF7 cells. Kind of assay: Cell scattering assay (bFGF stimulated). The class given is cell-based, human. Conditions: bFGF plus 200 nM, 48 h, vs bFGF alone. The procedure:
(§4) Cell Scattering Assay. The procedure was followed according to the previously described method (Amin et al., 2015, Mol. Carcinog). Briefly, MDA-MB-231 and MCF7 cells were trypsinized, seeded in 6 well plates at a density of 1000 cells/well and incubated for 5 days for the formation of small colonies. On the sixth day, exhausted media was replaced by fresh media and cells were stimulated with bFGF (20 ng/mL) along with 5 (200 nM) or doxorubicin for 48 h. Cells were then washed with PBS and photographs were taken under inverted microscope at 20× magnification.

For assay [7], the system named is MDA-MB-231 cells. The assay can be described thus: Cell scattering assay (bFGF stimulated). Conditions: bFGF plus 200 nM, 48 h, vs bFGF alone. The class given is cell-based, human. The procedure: as §4
The test system of assay [8] is MMP-9. The assay can be described thus: Immunoblotting, expression of MMP-9. The class given is cell-based, human. Conditions: MDA-MB-231 cells; dose dependent. The procedure:
(§5) Immunoblotting. MDA-MB-231 and MCF7 cells (0.5×10^6) were plated in six well plates for overnight in a humidified CO2 incubator and then exposed to varying concentrations of 5 (50, 100 and 200 nM) for 24 h along with vehicle (dose dependent study) and 200 nM of 5 for various time points like; 0, 6, 12, 24 and 48 h (time dependent study). Cells were then harvested, washed with chilled PBS and lysed with lysis buffer (HEPES 1 mM, KCl 60 mM, NP-40 0.3%, EDTA 1 mM, DTT 1 mM, sodium orthovanadate 1 mM, PMSF 0.1 mM and cocktail protease inhibitor). The cell extractions were centrifuged at 12,000 rpm for 10 min at 4° C. Protein concentration was measured by the standard Bradford method. An equal amount (20 μg) of protein from each sample was subjected to SDS-PAGE, and proteins were transferred to PVDF membranes (PALL), blocked with 5% (w/v) non-fat milk in PBS containing 0.1% Tween-20, probed with relevant antibodies (1:1000 dilution) for 3 h at room temperature or overnight at 4° C., and subsequently washed and probed with species-specific secondary antibodies coupled to horseradish peroxidase. Immunoreactive proteins were detected by Enhanced Chemiluminescence Plus (Thermo) (Rah et al., 2012, PloS one, 7(9), p.e44039.).
For orientation: Immunoblotting shows a protein as a band on a membrane.

Assay [9] has as its system E-cadherin. The assay can be described thus: Immunoblotting, expression of E-cadherin. The assay is classed as cell-based, human. Conditions: MDA-MB-231 cells; dose dependent. The procedure:
as §5

Assay [10] has as its system TIMP-1. Kind of assay: Immunoblotting, expression of TIMP-1. The assay is classed as cell-based, human. Conditions: MDA-MB-231 cells; dose dependent. The procedure: as §5
Assay [11] deals with MDA-MB-231 cells. The assay can be described thus: Drug potentiation, cell viability (MTT) assay. The class given is cell-based, human. Conditions: 200 nM 5 plus 200 nM doxorubicin (1:1), 48 h. The procedure:
Drug Potentiation Assay. Briefly, MDA-MB-231 cells were exposed to 200 nM of compound 5, 200 nM of doxorubicin alone and/or combination of both (1:1 ratio) for 48 h in cell viability (MTT) assay, for 5 days in a colony formation assay and subjected to western blotting for the expression of GRP78 and Par-4. The ability of 5 to enhance cell killing was expressed as potentiation index (PI), which was the ratio of the […]. Thus, PI>1 indicates potentiation and PI<1 indicates protection.

Like-named read-outs stand apart in the source and are kept apart here.

Regarding `CCCCCCCC(c1oc(CO)cc(=O)c1O)c1c[nH]c2ccccc12` (centres unmarked) [Compound 5, 2-{1-(1H-indol-3-yl)octyl}-3-hydroxy-6-(hydroxymethyl)-4H-pyran-4-one], the IC50 in assay [1] (MCF7, 44 h + 4 h, mean ± SD of three experiments, read-out: IC50 values MCF7) came out at 0.15 ± 0.095 µM; in assay [1] (MCF7, read-out: IC50 in MCF7), 0.15 µM; in assay [2] (MDA-MB-231, 44 h + 4 h, mean ± SD of three experiments, read-out: IC50 values MDA-MB-231), 0.209 ± 0.265 µM; in [2] (MDA-MB-231, read-out: IC50 in MDA-MB-231) it was 0.209 µM; in assay [3], 3.45 µM; in assay [3] (48 h), 3.45 µM. Besides, the suppressed migration in [4] was 55.4%; in assay [5], 57.3%. Further, the cell scattering inhibited is reported as 84.5% in assay [6] and 80% in assay [7]. For the same compound, the “expression of MMP-9” value in [8] was “downregulated”. Moreover, the “expression of E-cadherin” value in assay [9] is on record as “induced significantly”. For the same compound, the “expression of TIMP-1” value in [10] is on record as “induced significantly”. Also, the “potentiation index (PI)” value in assay [11] is on record as 3.1.

Usually IC50 stands for the concentration at which inhibition is half-maximal.
